Laboratory results reported in US20220240499A1, “COMPOSITION AND METHOD FOR CRYOPRESERVATION OF CELLS” (Regents of the University of Minnesota, priority 2019, published 2022).
Where a SMILES comes first, the peptide text is derived from it. The star is where a group is joined. Cbz = O=C(OCc1ccccc1)*; CH2F = FC*

How the values were obtained:
[1] = tested on: iPS cell aggregates; test: Post-thaw cell reattachment (calcein AM, 24 h post-thaw) after controlled-rate freezing, development of buffer and additives; format: cell-based, human; details: 100%: same as DMSO control; for Post-thaw reattachment rate of cell aggregates buffered in HBSS: HBSS buffer; for Post-thaw reattachment rate of cell aggregates buffered in PBS++: PBS++ buffer
Protocol: Cells were dissociated using ReLeSR™ and harvested as aggregates without centrifugation in the basal solution at cell concentration of ˜ 3×10^6/ml. Suspension of cell aggregates was loaded into cryovials (Nunc CryoTube, ThermoFisher Scientific) for 0.5 ml/vial. 2× cryopreservation solution was introduced to the cells dropwise for 0.5 ml/vial. Cells were then incubated at room temperature for exactly 30 min before freezing.
Cryovials of cells were frozen using a controlled-rate freezer (Kryo 10 Series III from Planer PLC in Middlesex, UK) following the steps listed below using a cooling rate, B, of 1° C./min and a seeding (or ice nucleation) temperature, TNUC, of −4° C.: • 1. Starting temperature 20° C. • 2. −10° C./min to 0° C. • 3. Hold at 0° C. for 10 min to equilibrate temperature inside and outside cryovials • 4. −1° C./min to −4° C. • 5. Hold at −4° C. for 15 min • 6. Induce ice nucleation when cryovial internal temperature reaches −4° C. towards the end of step 5 • 7. −1° C./min to −60° C. • 8. −10° C./min to −100° C.
Frozen cryovials were thawed in a 37° C. water bath. The cryovial was submerged below the lid and agitated for 2.5 min.
E8 media, either with or without apoptosis inhibitors, was added to the thawed suspension of cell aggregates using a flow rate of ˜ 1 ml/min. Dilution factor of 2 was used, meaning each cryovial of cells was used to produce 1 well of a 6-well plate of post-thaw cell culture. Diluted cells were seeded onto a freshly coated culture vessel and placed in 5% CO2 at 37° C. incubator undisturbed for 24 h.
Ability of cryopreserved cells to re-establish culture after thawing was assessed based on a metric of post-thaw cell reattachment. Thawed cells were plated at a specified split ratio. After 24 h, post-thaw culture was washed and stained for live cells with esterase activity using cell permeant dye calcein AM (ThermoFisher Scientific). Live cells in each sample were quantified using a Synergy HT microplate reader (BioTek) in scan mode based on mean fluorescence intensity. Fluorescence measurement was normalized to controls, which were either fresh cells passaged with the same cell density or cells cryopreserved with the same pre-freeze cell concentration using a DMSO-based control formulation, to determine the value of post-thaw cell reattachment for each sample in arbitrary unit.
Controlled-rate freezing protocol remained constant with a cooling rate of 1° C./min and an ice nucleation temperature of −4° C.
(§1) Different forms of cellular damage were identified. Low-temperature spectroscopy was conducted as described earlier to characterize the formation of intracellular ice at −50° C. Both pre-freeze and post-thaw, cells were stained for ROS and free radicals using H2DCFDA (ROS Detection Assay Kit, BioVision) at 37° C. for 45 min to characterize oxidative stress by immunofluorescence and microplate assay. Thawed cells were also stained for caspase enzyme activity using FAM-FLICA (from ImmunoChemistry Technologies, LLC in Bloomington, Minn.) to detect apoptosis. Size of cell aggregates post-thaw was observed visually. Post-thaw cell recovery, reattachment and proliferation were measured as described earlier. Cells cryopreserved using 10% DMSO in PBS++ was used as a control. Brightfield and fluorescent images were acquired using a Carl Zeiss Axioskop 50 with a 10× air objective (NA 0.30, Plan-Neofluar, Carl Zeiss) or a 20× air objective (NA 0.50, Plan-Neofluar, Carl Zeiss) and a Spot Insight Firewire 2 Camera. Microplate assay was quantified using a Synergy HT microplate reader (BioTek).
Different types of additives were tested. P188 5% w/v was added to both the basal solution and the 2× cryopreservation solution to stabilize cell membrane. 2× NEAA was added pre-freeze to the 2× cryopreservation solution to conserve cellular energy. […]

[2] = tested on: iPS cell aggregates; test: Cell proliferation of post-thaw culture from 24 to 48 h; format: cell-based, human; details: 1: no net change in total live cell count in culture
Protocol: as §1
Different types of additives were tested. P188 5% w/v was added to both the basal solution and the 2× cryopreservation solution to stabilize cell membrane. 2× NEAA was added pre-freeze to the 2× cryopreservation solution to conserve cellular energy. The following molecules were used to target general or specific apoptosis pathways and added at the given working concentration either pre-freeze or post-thaw: 10 μM rho kinase inhibitor (or ROCK inhibitor, Y-27632, […] Technologies), 20 μM pan caspase inhibitor (Z-VAD-FMK, from ApexBio Technology LLC in Houston, Tex.), 1 μg/ml Fas ligand inhibitor (Recombinant Human Fas/TNFRSF6-Fc Chimera from BioLegend in San Diego, Calif.), 100 ng/ml each of TNF-related apoptosis-inducing ligand (TRAIL) inhibitors targeting TRAIL receptor 1 (Recombinant Human TNFRSF10A-Fc Chimera, BioLegend), TRAIL receptor 2 (Recombinant Human TNFRSF10B-Fc Chimera, BioLegend), and TRAIL receptor 4 (Recombinant Human TNFRSF10D-Fc Chimera, BioLegend) respectively.

[3] = tested on: iPS cell aggregates; test: Screening of osmolytes for wash-free cryopreservation (cytotoxicity limits by cell reattachment); details: 300 mM, 30 min, in HBSS at room temperature; observed 24 hours later
Protocol: Different types of sugars (disaccharides) and sugar alcohols (all BioUltra or PharmaGrade, Sigma-Aldrich) were individually tested for cytotoxicity limits based on its effect on cell reattachment. In consideration for pre-freeze cell processing, each molecule of a given concentration among 300 mM, 150 mM, and 75 mM was used to incubate cell aggregates suspended in HBSS at room temperature for 30 minutes or 1 hour. Then, in consideration of wash-free thawing at minimum dilution ratio of 2, each sample of cell aggregates were mixed at 1:1 volume ratio with E8 media and plated on vitronectin-coated culture vessel. 24 hours later, cell reattachment was observed qualitatively under a Nikon TMS inverted phase contrast microscope. Disaccharides included sucrose, trehalose, maltose, and lactose.

Compound	Post-thaw reattachment rate of cell aggregates buffered in HBSS ([1]; inhibitor added post-thaw)	Post-thaw reattachment rate of cell aggregates buffered in PBS++ ([1]; inhibitor added post-thaw)	Post-thaw reattachment rate of cell aggregates buffered in PBS++ ([1]; inhibitor added pre-freeze)	Cell proliferation of culture cryopreserved in HBSS from 24 to 48 h post-thaw ([2]; inhibitors added post-thaw)	Post-thaw reattachment rate of cell aggregates buffered in HBSS ([1]; inhibitor added pre-freeze)	Cell proliferation of culture cryopreserved in HBSS from 24 to 48 h post-thaw ([2]; inhibitors added pre-freeze)	Conditions and observation: cell reattachment after incubation [3]
COC(=O)C[C@H](NC(=O)[C@H](C)NC(=O)[C@@H](NC(=O)OCc1ccccc1)C(C)C)C(=O)CF [Pan caspase, Z-VAD-FMK] (Cbz-Val-Ala-Asp(OMe)-CH2F)	100%	30%	15%	3.312			
C[C@@H](N)[C@H]1CC[C@H](C(=O)Nc2ccncc2)CC1 [Rho kinase, Y-27632]		11%	109%		104%	0.967	
Fas ligand	106%	62%	45%	1.749	76%	1.713	
ethylene glycol							many colonies, normal morphology
